Measured values reported in ChEMBL document CHEMBL4043281, “Development of a peptide-based inducer of protein degradation targeting NOTCH1” (Bioorg Med Chem Lett, 2017).
Activity calls are given as the source filed them. The rule behind the calls is not given here. Positions of bridges follow the written chain, without caps; N, C: chain ends. Non-standard residues stand in square brackets, D forms with d. Residues, ends and D or L forms follow the SMILES beside them. Dip = N[C@H](C(=O)O)C(c1ccccc1)c1ccccc1; Chg = N[C@H](C(=O)O)C1CCCCC1; S5 = C=CCCC[C@](C)(N)C(=O)O; NMeA = CN[C@@H](C)C(=O)O; AEEA = NCCOCCOCC(=O)O; βAla = NCCC(=O)O

Key:
MOLT-4 [1] = assay: Induction of CSL protein degradation in human MOLT4 cells assessed as ratio of CSL to lamin protein level at 80 uM after 6 hrs by Western blot analysis (reference value: 100%); format: functional
Homo sapiens [2] = organism: Homo sapiens; assay: Induction of IAP-mediated NOTCH1 protein degradation in human MOLT4 cells assessed as ratio of NOTCH1 to beta-actin protein level at 80 uM after 4 hrs by Western blot analysis (reference value: 100%); format: cell-based
MOLT-4 [3] = assay: Induction of CSL protein degradation in human MOLT4 cells assessed as ratio of CSL to lamin protein level at 100 uM after 6 hrs by Western blot analysis (reference value: 111%); format: functional
Homo sapiens [4] = organism: Homo sapiens; assay: Induction of IAP-mediated NOTCH1 protein degradation in human MOLT4 cells assessed as ratio of NOTCH1 to lamin protein level at 20 uM after 6 hrs by Western blot analysis (reference value: 91%); format: cell-based
Homo sapiens [5] = organism: Homo sapiens; assay: Induction of IAP-mediated NOTCH1 protein degradation in human MOLT4 cells assessed as reduction in c-Myc level by measuring ratio of c-Myc to beta-actin protein level at 80 uM after 4 hrs by Western blot analysis (reference value: 100%); format: cell-based
MOLT-4 [6] = assay: Induction of CSL protein degradation in human MOLT4 cells assessed as ratio of CSL to lamin protein level at 60 uM after 6 hrs by Western blot analysis (reference value: 100%); format: functional
Homo sapiens [7] = organism: Homo sapiens; assay: Induction of IAP-mediated NOTCH1 protein degradation in human MOLT4 cells assessed as reduction in c-Myc level by measuring ratio of c-Myc to beta-actin protein level at 80 uM after 6 hrs by Western blot analysis (reference value: 100%); format: cell-based
Homo sapiens [8] = organism: Homo sapiens; assay: Induction of IAP-mediated NOTCH1 protein degradation in human MOLT4 cells assessed as ratio of NOTCH1 to lamin protein level at 50 uM after 6 hrs by Western blot analysis (reference value: 100%); format: cell-based
Homo sapiens [9] = organism: Homo sapiens; assay: Induction of IAP-mediated NOTCH1 protein degradation in human MOLT4 cells assessed as ratio of NOTCH1 to beta-actin protein level at 80 uM after 10 hrs by Western blot analysis (reference value: 100%); format: cell-based
Homo sapiens [10] = organism: Homo sapiens; assay: Induction of IAP-mediated NOTCH1 protein degradation in human MOLT4 cells assessed as ratio of NOTCH1 to lamin protein level at 80 uM after 6 hrs by Western blot analysis (reference value: 100%); format: cell-based
MOLT-4 [11] = assay: Induction of CSL protein degradation in human MOLT4 cells assessed as ratio of CSL to lamin protein level at 70 uM after 6 hrs by Western blot analysis (reference value: 100%); format: functional
Homo sapiens [12] = organism: Homo sapiens; assay: Induction of IAP-mediated NOTCH1 protein degradation in human MOLT4 cells assessed as ratio of NOTCH1 to lamin protein level at 60 uM after 6 hrs in presence of proteasome inhibitor MG132 by Western blot analysis (reference value: 100%); format: cell-based
MOLT-4 [13] = assay: Induction of CSL protein degradation in human MOLT4 cells assessed as ratio of CSL to lamin protein level at 50 uM after 6 hrs by Western blot analysis (reference value: 100%); format: functional
Homo sapiens [14] = organism: Homo sapiens; assay: Induction of IAP-mediated NOTCH1 protein degradation in human MOLT4 cells assessed as ratio of NOTCH1 to lamin protein level at 50 uM after 6 hrs by Western blot analysis (reference value: 91%); format: cell-based
Homo sapiens [15] = organism: Homo sapiens; assay: Induction of IAP-mediated NOTCH1 protein degradation in human MOLT4 cells assessed as reduction in c-Myc level by measuring ratio of c-Myc to beta-actin protein level at 80 uM after 10 hrs by Western blot analysis (reference value: 100%); format: cell-based
Homo sapiens [16] = organism: Homo sapiens; assay: Induction of IAP-mediated NOTCH1 protein degradation in human MOLT4 cells assessed as reduction in c-Myc level by measuring ratio of c-Myc to beta-actin protein level at 80 uM after 8 hrs by Western blot analysis (reference value: 100%); format: cell-based
Homo sapiens [17] = organism: Homo sapiens; assay: Induction of IAP-mediated NOTCH1 protein degradation in human MOLT4 cells assessed as reduction in c-Myc level at 80 uM by Western blot analysis; format: cell-based; conditions: TDE = time-dependent effect
Homo sapiens [18] = organism: Homo sapiens; assay: Induction of IAP-mediated NOTCH1 protein degradation in human MOLT4 cells assessed as ratio of NOTCH1 to lamin protein level at 80 uM after 6 hrs in presence of proteasome inhibitor MG132 by Western blot analysis (reference value: 100%); format: cell-based
Homo sapiens [19] = organism: Homo sapiens; assay: Antagonist activity IAP in human MOLT4 cells assessed as reduction in cIAP1 protein level at 50 to 80 uM after 6 hrs by Western blot analysis; format: cell-based
Homo sapiens [20] = organism: Homo sapiens; assay: Induction of IAP-mediated NOTCH1 protein degradation in human MOLT4 cells assessed as ratio of NOTCH1 to lamin protein level at 100 uM after 6 hrs by Western blot analysis (reference value: 91%); format: cell-based
MOLT-4 [21] = assay: Cytotoxicity against human MOLT4 cells at >100 uM; format: cell-based
Homo sapiens [22] = organism: Homo sapiens; assay: Induction of IAP-mediated NOTCH1 protein degradation in human MOLT4 cells assessed as ratio of NOTCH1 to lamin protein level at 70 uM after 6 hrs in presence of proteasome inhibitor MG132 by Western blot analysis (reference value: 100%); format: cell-based
Homo sapiens [23] = organism: Homo sapiens; assay: Induction of IAP-mediated NOTCH1 protein degradation in human MOLT4 cells assessed as ratio of NOTCH1 to beta-actin protein level at 80 uM after 6 hrs by Western blot analysis (reference value: 100%); format: cell-based
Homo sapiens [24] = organism: Homo sapiens; assay: Induction of IAP-mediated NOTCH1 protein degradation in human MOLT4 cells assessed as ratio of NOTCH1 to lamin protein level at 70 uM after 6 hrs by Western blot analysis (reference value: 100%); format: cell-based
MOLT-4 [25] = assay: Induction of CSL protein degradation in human MOLT4 cells assessed as ratio of CSL to lamin protein level at 50 uM after 6 hrs by Western blot analysis (reference value: 111%); format: functional
Homo sapiens [26] = organism: Homo sapiens; assay: Induction of IAP-mediated NOTCH1 protein degradation in human MOLT4 cells assessed as ratio of NOTCH1 to lamin protein level at 60 uM after 6 hrs by Western blot analysis (reference value: 100%); format: cell-based
Homo sapiens [27] = organism: Homo sapiens; assay: Induction of IAP-mediated NOTCH1 protein degradation in human MOLT4 cells assessed as reduction in c-Myc level by measuring ratio of c-Myc to beta-actin protein level at 80 uM after 2 hrs by Western blot analysis (reference value: 100%); format: cell-based
Homo sapiens [28] = organism: Homo sapiens; assay: Induction of IAP-mediated NOTCH1 protein degradation in human MOLT4 cells assessed as ratio of NOTCH1 to beta-actin protein level at 80 uM after 2 hrs by Western blot analysis (reference value: 100%); format: cell-based
MOLT-4 [29] = assay: Induction of CSL protein degradation in human MOLT4 cells assessed as ratio of CSL to lamin protein level at 20 uM after 6 hrs by Western blot analysis (reference value: 111%); format: functional
Homo sapiens [30] = organism: Homo sapiens; assay: Induction of IAP-mediated NOTCH1 protein degradation in human MOLT4 cells assessed as ratio of NOTCH1 to beta-actin protein level at 80 uM after 8 hrs by Western blot analysis (reference value: 100%); format: cell-based
MOLT-4 [31] = assay: Induction of CSL protein degradation in human MOLT4 cells assessed as ratio of CSL to lamin protein level at 100 uM after 6 hrs by Western blot analysis (reference value: 100%); format: functional
Homo sapiens [32] = organism: Homo sapiens; assay: Induction of IAP-mediated NOTCH1 protein degradation in human MOLT4 cells assessed as ratio of NOTCH1 to lamin protein level at 20 uM after 6 hrs by Western blot analysis (reference value: 100%); format: cell-based
MOLT-4 [33] = assay: Induction of CSL protein degradation in human MOLT4 cells assessed as ratio of CSL to lamin protein level at 20 uM after 6 hrs by Western blot analysis (reference value: 100%); format: functional
Homo sapiens [34] = organism: Homo sapiens; assay: Induction of IAP-mediated NOTCH1 protein degradation in human MOLT4 cells assessed as ratio of NOTCH1 to lamin protein level at 100 uM after 6 hrs by Western blot analysis (reference value: 100%); format: cell-based

## CC[C@H](C)[C@H](NC(=O)[C@H](CCCNC(=N)N)NC(=O)[C@H](CCCNC(=N)N)NC(=O)[C@H](CCCNC(=N)N)NC(=O)[C@H](CC(C)C)NC(=O)[C@H](CCCNC(=N)N)NC(=O)[C@H](CCC(=O)O)NC(=O)CCNC(=O)COCCOCCNC(=O)COCCOCCNC(=O)[C@@H](NC(=O)[C@@H]1CCCN1C(=O)[C@@H](NC(=O)[C@H](C)NC)C1CCCCC1)C(c1ccccc1)c1ccccc1)C(=O)N[C@@]1(C)CCC/C=C\CCC[C@@](C)(C(=O)N[C@@H](CCCNC(=N)N)C(=O)N[C@@H](Cc2cnc[nH]2)C(=O)N[C@@H](Cc2cnc[nH]2)C(=O)N[C@@H](CO)C(=O)N[C@H](C(=O)O)[C@@H](C)O)NC(=O)[C@H](CS)NC(=O)[C@H](CC(C)C)NC1=O (H-[NMeA][Chg]P[Dip][AEEA][AEEA][βAla]ERLRRRI[S5]LC[S5]RHHST-OH; staple (Z) 15-18)
MOLT-4 [1]
  Ratio: 118%
Homo sapiens [2]
  Ratio: 52%
MOLT-4 [3]
  Ratio: 83%
Homo sapiens [4]
  Ratio: 99%
Homo sapiens [5]
  Ratio: 73%
MOLT-4 [6]
  Ratio: 108%
Homo sapiens [7]
  Ratio: 63%
Homo sapiens [8]
  Ratio: 88%
Homo sapiens [9]
  Ratio: 43%
Homo sapiens [10]
  Ratio: 48 to 67%
MOLT-4 [11]
  Ratio: 112%
Homo sapiens [12]
  Ratio: 92%
MOLT-4 [13]
  Ratio: 110%
Homo sapiens [14]
  Ratio: 76%
Homo sapiens [15]
  Ratio: 43%
Homo sapiens [16]
  Ratio: 56%
Homo sapiens [17]
  Activity: Tde
Homo sapiens [18]
  Ratio: 110%
Homo sapiens [19]
  inhibition: Active
Homo sapiens [20]
  Ratio: 30%
MOLT-4 [21]
  Activity: Toxic
Homo sapiens [22]
  Ratio: 108%
Homo sapiens [23]
  Ratio: 54%
Homo sapiens [24]
  Ratio: 63 to 70%
MOLT-4 [25]
  Ratio: 99%
Homo sapiens [26]
  Ratio: 72 to 75%
Homo sapiens [27]
  Ratio: 62%
Homo sapiens [28]
  Ratio: 67%
MOLT-4 [29]
  Ratio: 114%
Homo sapiens [30]
  Ratio: 56%

## CC[C@H](C)[C@H](NC(=O)[C@H](CCCNC(=N)N)NC(=O)[C@H](CCCNC(=N)N)NC(=O)[C@H](CCCNC(=N)N)NC(=O)[C@H](CC(C)C)NC(=O)[C@H](CCCNC(=N)N)NC(=O)[C@H](CCC(=O)O)NC(=O)CCN)C(=O)N[C@@H](CCC(=O)O)C(=O)N[C@@H](CC(C)C)C(=O)N[C@@H](CS)C(=O)N[C@@H](CCCNC(=N)N)C(=O)N[C@@H](CCCNC(=N)N)C(=O)N[C@@H](Cc1cnc[nH]1)C(=O)N[C@@H](Cc1cnc[nH]1)C(=O)N[C@@H](CO)C(=O)N[C@H](C(=O)O)[C@@H](C)O (H-[βAla]ERLRRRIELCRRHHST-OH)
MOLT-4 [31]
  Ratio: 113%
Homo sapiens [32]
  Ratio: 101%
Homo sapiens [8]
  Ratio: 118%
MOLT-4 [33]
  Ratio: 107%
Homo sapiens [34]
  Ratio: 108%
MOLT-4 [13]
  Ratio: 115%
MOLT-4 [21]
  Activity: Toxic

## CC[C@H](C)[C@H](NC(=O)[C@H](CCCNC(=N)N)NC(=O)[C@H](CCCNC(=N)N)NC(=O)[C@H](CCCNC(=N)N)NC(=O)[C@H](CC(C)C)NC(=O)[C@H](CCCNC(=N)N)NC(=O)[C@H](CCC(=O)O)NC(=O)CCNC(=O)COCCOCCNC(=O)[C@@H](NC(=O)[C@@H]1CCCN1C(=O)[C@@H](NC(=O)[C@H](C)NC)C1CCCCC1)C(c1ccccc1)c1ccccc1)C(=O)N[C@@H](CCC(=O)O)C(=O)N[C@@H](CC(C)C)C(=O)N[C@@H](CS)C(=O)N[C@@H](CCCNC(=N)N)C(=O)N[C@@H](CCCNC(=N)N)C(=O)N[C@@H](Cc1cnc[nH]1)C(=O)N[C@@H](Cc1cnc[nH]1)C(=O)N[C@@H](CO)C(=O)N[C@H](C(=O)O)[C@@H](C)O (H-[NMeA][Chg]P[Dip][AEEA][βAla]ERLRRRIELCRRHHST-OH)
MOLT-4 [31]
  Ratio: 99%
Homo sapiens [32]
  Ratio: 116%
Homo sapiens [8]
  Ratio: 100%
MOLT-4 [33]
  Ratio: 115%
Homo sapiens [34]
  Ratio: 85%
MOLT-4 [13]
  Ratio: 108%
MOLT-4 [21]
  Activity: Toxic
